Measured values reported in patent US20230107941A1, “HEPATITIS B CAPSID ASSEMBLY MODULATORS” (Venatorx Pharmaceuticals, Inc., priority 2019, published 2023).

Experiments:
HBV = assay: In vitro antiviral assay: anti-HBV replication in HepAD38 cells (extracellular HBV DNA by QPCR); type: cell-based, hepatitis B virus (genotype D, serotype ayw); details: Hepatitis B virus, HePAD38, 168 h, 7 days incubation, extracellular HBV DNA by QPCR, read-out: Anti-HBV EC50
Procedure, shortened: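 HepG2-derived HepAD38 cells (HBV genotype D, ayw, tet-repressible CMV) induced by tetracycline withdrawal, treated 7 days at 37 °C with compound (1 μM to 10 pM, 10-fold steps). Supernatant HBV DNA quantified by QPCR against standard curve, percent of DMSO control; EC50 by 4-parameter fit; entecavir positive control.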

[1] = In vitro cytotoxicity assay (MTT cell viability) in HepG2 cells; type: cell-based, human; details: human
Procedure, shortened: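 CC50 was derived by 4-parameter fit of viability relative to vehicle controls, measured as MTT formazan absorbance at 492 nm after 3–4 h of reagent and DMSO solubilization. Before that, HepG2 cells seeded overnight at 20,000/well were incubated 7 days at 37°C with compound from 30 μM down to 1.0 nM in half-log steps.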

Compound `Cc1cc(NC(=O)c2c(C)c(C(=O)C(=O)N[C@]3(C)C[C@H](O)C3)n(C)c2C2CCCC2)ccc1F` [Example 132, 2-cyclopentyl-N-(4-fluoro-3-methylphenyl)-5-(2-(((1s,3s)-3-hydroxy-1-methylcyclobutyl)amino)-2-oxoacetyl)-1,4-dimethyl-1H-pyrrole-3-carboxamide] has an EC50 (HBV) of 50 to 499 nM and a CC50 at 7 days [1] greater than 30000 nM.

`Cc1cc(NC(=O)c2c(C)c(C(=O)C(=O)N[C@]3(C)CC[C@H](O)CC3)n(C)c2C2CCCC2)ccc1F` [Example 133, 2-cyclopentyl-N-(4-fluoro-3-methylphenyl)-5-(2-(((1s,4s)-4-hydroxy-1-methylcyclohexyl)amino)-2-oxoacetyl)-1,4-dimethyl-1H-pyrrole-3-carboxamide] gave an EC50 (HBV) of less than 50 nM and a CC50 at 7 days [1] greater than 30000 nM.

`Cc1cc(NC(=O)c2c(C)c(C(=O)C(=O)N[C@H]3CC[C@@H](O)CC3)n(C)c2C2CCCC2)ccc1F` [Example 134, 2-cyclopentyl-N-(4-fluoro-3-methylphenyl)-5-(2-(((1s,4s)-4-hydroxycyclohexyl)amino)-2-oxoacetyl)-1,4-dimethyl-1H-pyrrole-3-carboxamide] showed an EC50 (HBV) of 50 to 499 nM and a CC50 at 7 days [1] greater than 30000 nM.

`Cc1cc(NC(=O)c2c(C)c(C(=O)C(=O)NCC(C)(C)O)n(C)c2C2CCCC2)ccc1F` [Example 135, 2-cyclopentyl-N-(4-fluoro-3-methylphenyl)-5-(2-((2-hydroxy-2-methylpropyl)amino)-2-oxoacetyl)-1,4-dimethyl-1H-pyrrole-3-carboxamide] gave an EC50 (HBV) of 50 to 499 nM and a CC50 at 7 days [1] greater than 30000 nM.

In the case of `Cc1c(C(=O)Nc2ccc(F)c(C3CC3)c2)c(C)n(C)c1C(=O)C(=O)N[C@]1(C)CC[C@@H](O)CC1` [Example 136, N-(3-cyclopropyl-4-fluorophenyl)-5-(2-(((1r,4r)-4-hydroxy-1-methylcyclohexyl)amino)-2-oxoacetyl)-1,2,4-trimethyl-1H-pyrrole-3-carboxamide], the EC50 (HBV) is reported as less than 50 nM and the CC50 at 7 days [1] is reported as greater than 30000 nM.

Compound `Cc1c(C(=O)Nc2ccc(F)cc2)c(C)n(C)c1C(=O)C(=O)N[C@]1(C)CC[C@@H](O)CC1` [Example 137, N-(4-fluorophenyl)-5-(2-(((1r,4r)-4-hydroxy-1-methylcyclohexyl)amino)-2-oxoacetyl)-1,2,4-trimethyl-1H-pyrrole-3-carboxamide] has an EC50 (HBV) of less than 50 nM and a CC50 at 7 days [1] greater than 30000 nM.

`Cc1c(C(=O)Nc2ccc(F)c(C3CC3)c2)c(C)n(C)c1C(=O)C(=O)NC(C)(C)C` [Example 138, 5-(2-(tert-butylamino)-2-oxoacetyl)-N-(3-cyclopropyl-4-fluorophenyl)-1,2,4-trimethyl-1H-pyrrole-3-carboxamide] showed an EC50 (HBV) of less than 50 nM and a CC50 at 7 days [1] greater than 30000 nM.

Compound `Cc1c(C(=O)Nc2ccc(F)c(-c3nc[nH]n3)c2)c(C)n(C)c1C(=O)C(=O)NC(C)(C)C` [Example 139, 5-(2-(tert-butylamino)-2-oxoacetyl)-N-(4-fluoro-3-(1H-1,2,4-triazol-3-yl)phenyl)-1,2,4-trimethyl-1H-pyrrole-3-carboxamide] has an EC50 (HBV) greater than 1000 nM and a CC50 at 7 days [1] greater than 30000 nM.

For `Cc1c(C(=O)Nc2ccc(F)c(C#N)c2)c(C)n(C)c1C(=O)C(=O)Nc1ccc(B(O)O)cc1` [Example 140, (4-(2-(4-((3-cyano-4-fluorophenyl)carbamoyl)-1,3,5-trimethyl-1H-pyrrol-2-yl)-2-oxoacetamido)phenyl)boronic acid], the EC50 (HBV) was less than 50 nM and the CC50 at 7 days [1] was greater than 30000 nM.

Work on `Cc1c(C(=O)Nc2ccc(F)c(C#N)c2)c(C)n(C)c1C(=O)C(=O)Nc1cccc(B(O)O)c1` [Example 141, (3-(2-(4-((3-cyano-4-fluorophenyl)carbamoyl)-1,3,5-trimethyl-1H-pyrrol-2-yl)-2-oxoacetamido)phenyl)boronic acid] yielded an EC50 (HBV) of 50 to 499 nM and a CC50 at 7 days [1] greater than 30000 nM.

In the case of `Cc1cc(NC(=O)c2c(C)c(C(=O)C(=O)N[C@H]3CC[C@@H](OCC(=O)O)CC3)n(C)c2C)ccc1F` [Example 144, 2-(((1s,4s)-4-(2-(4-((4-fluoro-3-methylphenyl)carbamoyl)-1,3,5-trimethyl-1H-pyrrol-2-yl)-2-oxoacetamido)cyclohexyl)oxy) acetic acid], the EC50 (HBV) is reported as 50 to 499 nM and the CC50 at 7 days [1] is reported as greater than 30000 nM.

Compound `Cc1cc(NC(=O)c2c(C)c(C(=O)C(=O)NC3(CC(=O)O)CCNCC3)n(C)c2C)ccc1F` [Example 145, 2-(4-(2-(4-((4-fluoro-3-methylphenyl)carbamoyl)-1,3,5-trimethyl-1H-pyrrol-2-yl)-2-oxoacetamido)piperidin-4-yl)acetic acid] has an EC50 (HBV) of 50 to 499 nM and a CC50 at 7 days [1] greater than 30000 nM.

For `Cc1cc(NC(=O)c2c(C)c(C(=O)C(=O)NC3(CC(=O)O)CCCNC3)n(C)c2C)ccc1F` (centres unmarked) [Example 146, 2-(3-(2-(4-((4-fluoro-3-methylphenyl)carbamoyl)-1,3,5-trimethyl-1H-pyrrol-2-yl)-2-oxoacetamido)piperidin-3-yl)acetic acid], the EC50 (HBV) was greater than 1000 nM and the CC50 at 7 days [1] was greater than 30000 nM.

For `CC(=O)N1CC[C@@H](NC(=O)C(=O)c2c(C)c(C(=O)Nc3ccc(F)c(C)c3)c(C)n2C)[C@H](F)C1` [Example 147, 5-(2-(((3R,4R)-1-acetyl-3-fluoropiperidin-4-yl)amino)-2-oxoacetyl)-N-(4-fluoro-3-methylphenyl)-1,2,4-trimethyl-1H-pyrrole-3-carboxamide], the EC50 (HBV) was less than 50 nM and the CC50 at 7 days [1] was greater than 30000 nM.

With `CC(=O)N1CC[C@@H](NC(=O)C(=O)c2c(C)c(C(=O)Nc3ccc(F)c(C)c3)c(C)n2C)C(F)(F)C1` [Example 148, (R)-5-(2-((1-acetyl-3,3-difluoropiperidin-4-yl)amino)-2-oxoacetyl)-N-(4-fluoro-3-methylphenyl)-1,2,4-trimethyl-1H-pyrrole-3-carboxamide] the EC50 (HBV) was less than 50 nM and the CC50 at 7 days [1] was greater than 30000 nM.

`CC(=O)N1CC[C@@H](NC(=O)C(=O)c2c(C)c(C(=O)Nc3ccc(F)c(C)c3)c(C)n2C)C(C)(C)C1` [Example 149, (R)-5-(2-((1-acetyl-3,3-dimethylpiperidin-4-yl)amino)-2-oxoacetyl)-N-(4-fluoro-3-methylphenyl)-1,2,4-trimethyl-1H-pyrrole-3-carboxamide] showed an EC50 (HBV) of less than 50 nM and a CC50 at 7 days [1] greater than 30000 nM.

For `Cc1cc(NC(=O)c2c(C)c(C(=O)C(=O)N[C@]3(C)C[C@H](O)C3)n(C)c2-c2cccnc2)ccc1F` [Example 150, N-(4-fluoro-3-methylphenyl)-5-(2-(((1s,3s)-3-hydroxy-1-methylcyclobutyl)amino)-2-oxoacetyl)-1,4-dimethyl-2-(pyridin-3-yl)-1H-pyrrole-3-carboxamide], the EC50 (HBV) was greater than 1000 nM and the CC50 at 7 days [1] was greater than 30000 nM.

Compound `Cc1cc(NC(=O)c2c(C)c(C(=O)C(=O)N[C@H]3CC[C@@H](S(C)(=O)=O)CC3)n(C)c2-c2cccnc2)ccc1F` [Example 151, N-(4-fluoro-3-methylphenyl)-1,4-dimethyl-5-(2-(((1s,4s)-4-(methylsulfonyl)cyclohexyl)amino)-2-oxoacetyl)-2-(pyridin-3-yl)-1H-pyrrole-3-carboxamide] has an EC50 (HBV) greater than 1000 nM and a CC50 at 7 days [1] greater than 30000 nM.

With `Cc1cc(NC(=O)c2c(C)c(C(=O)C(=O)N[C@]3(C)CC[C@H](O)CC3)n(C)c2-c2cccnc2)ccc1F` [Example 152, N-(4-fluoro-3-methylphenyl)-5-(2-(((1s,4s)-4-hydroxy-1-methylcyclohexyl)amino)-2-oxoacetyl)-1,4-dimethyl-2-(pyridin-3-yl)-1H-pyrrole-3-carboxamide] the EC50 (HBV) was greater than 1000 nM and the CC50 at 7 days [1] was greater than 30000 nM.

`Cc1cc(NC(=O)c2c(C)c(C(=O)C(=O)N[C@H]3CC[C@@H](O)CC3)n(C)c2-c2cccnc2)ccc1F` [Example 153, N-(4-fluoro-3-methylphenyl)-5-(2-(((1s,4s)-4-hydroxycyclohexyl)amino)-2-oxoacetyl)-1,4-dimethyl-2-(pyridin-3-yl)-1H-pyrrole-3-carboxamide] gave an EC50 (HBV) greater than 1000 nM and a CC50 at 7 days [1] greater than 30000 nM.

Compound `Cc1cc(NC(=O)c2c(C)c(C(=O)C(=O)NCC(C)(C)O)n(C)c2-c2cccnc2)ccc1F` [Example 154, N-(4-fluoro-3-methylphenyl)-5-(2-((2-hydroxy-2-methylpropyl)amino)-2-oxoacetyl)-1,4-dimethyl-2-(pyridin-3-yl)-1H-pyrrole-3-carboxamide] has an EC50 (HBV) of 50 to 499 nM and a CC50 at 7 days [1] greater than 30000 nM.

With `Cc1cc(NC(=O)c2c(C)c(C(=O)C(=O)N[C@]3(C)C[C@H](O)C3)n(C)c2-c2ccccn2)ccc1F` [Example 155, N-(4-fluoro-3-methylphenyl)-5-(2-(((1s,3s)-3-hydroxy-1-methylcyclobutyl)amino)-2-oxoacetyl)-1,4-dimethyl-2-(pyridin-2-yl)-1H-pyrrole-3-carboxamide] the EC50 (HBV) was greater than 1000 nM and the CC50 at 7 days [1] was greater than 30000 nM.

Work on `Cc1cc(NC(=O)c2c(C)c(C(=O)C(=O)N[C@H]3CC[C@@H](S(C)(=O)=O)CC3)n(C)c2-c2ccccn2)ccc1F` [Example 156, N-(4-fluoro-3-methylphenyl)-1,4-dimethyl-5-(2-(((1s,4s)-4-(methylsulfonyl)cyclohexyl)amino)-2-oxoacetyl)-2-(pyridin-2-yl)-1H-pyrrole-3-carboxamide] yielded an EC50 (HBV) greater than 1000 nM and a CC50 at 7 days [1] greater than 30000 nM.

Compound `Cc1cc(NC(=O)c2c(C)c(C(=O)C(=O)N[C@]3(C)CC[C@H](O)CC3)n(C)c2-c2ccccn2)ccc1F` [Example 157, N-(4-fluoro-3-methylphenyl)-5-(2-(((1s,4s)-4-hydroxy-1-methylcyclohexyl)amino)-2-oxoacetyl)-1,4-dimethyl-2-(pyridin-2-yl)-1H-pyrrole-3-carboxamide] has an EC50 (HBV) of 50 to 499 nM and a CC50 at 7 days [1] greater than 30000 nM.

Work on `Cc1cc(NC(=O)c2c(C)c(C(=O)C(=O)N[C@H]3CC[C@@H](O)CC3)n(C)c2-c2ccccn2)ccc1F` [Example 158, N-(4-fluoro-3-methylphenyl)-5-(2-(((1s,4s)-4-hydroxycyclohexyl)amino)-2-oxoacetyl)-1,4-dimethyl-2-(pyridin-2-yl)-1H-pyrrole-3-carboxamide] yielded an EC50 (HBV) greater than 1000 nM and a CC50 at 7 days [1] greater than 30000 nM.
